Measured values published in patent US10883981B2, “Fluorescent fusion polypeptide, encoding nucleic acid, and cell comprising said polypeptide” (priority 2012, dated 2021).
Converted amounts (≈) assume the structure as drawn. One block for each compound: values may come before it.

How the values were obtained:
[1] = tested on: U2OS stably expressing fluorescent DAG biosensor; test: DAG biosensor fluorescence redistribution (internalization) assay
Method: Cellular distribution of DAG biosensor stimulated cells. […] DAG biosensor activity was determined measuring the generation of the vesicle using image analysis algorithms.
As with the previous examples, in order to assess whether the activation of the above mentioned polypeptide induces intracellular fluorescence redistribution in living cells, peptide turboGFP was cloned as the fluorescent peptide and the cellular localization of the biosensor was analysed upon diacylglycerol induced activation. In this sense, U2O2 cell line was stably transfected with the plasmid construction that contains the above mentioned biosensor's coding sequence. […] As with the previous examples, activity was calculated as an increment of granularity by treating these cells with increasing dosages of PMA.

[2] = tested on: HEK293 and U2O2 cells stably transfected with calcium biosensor; test: Calcium biosensor cellular localization upon calcium induced activation; format: cell-based; details: 10 ng/ml of PMA and 1 uM of ionomycin applied together
Text: After transfection, both cell lines presented a membrane distribution of the fluorescence.

[3] = molecular target: human Tachykinin receptor 1 (Neurokinin 1 receptor) (Homo sapiens, UniProt P25103); details: 10 uM, 6 hours, U2OS expressing human Neurokinin receptor 1 and calcium biosensor
Sequence of human Tachykinin receptor 1 (Neurokinin 1 receptor) (P25103 whole entry): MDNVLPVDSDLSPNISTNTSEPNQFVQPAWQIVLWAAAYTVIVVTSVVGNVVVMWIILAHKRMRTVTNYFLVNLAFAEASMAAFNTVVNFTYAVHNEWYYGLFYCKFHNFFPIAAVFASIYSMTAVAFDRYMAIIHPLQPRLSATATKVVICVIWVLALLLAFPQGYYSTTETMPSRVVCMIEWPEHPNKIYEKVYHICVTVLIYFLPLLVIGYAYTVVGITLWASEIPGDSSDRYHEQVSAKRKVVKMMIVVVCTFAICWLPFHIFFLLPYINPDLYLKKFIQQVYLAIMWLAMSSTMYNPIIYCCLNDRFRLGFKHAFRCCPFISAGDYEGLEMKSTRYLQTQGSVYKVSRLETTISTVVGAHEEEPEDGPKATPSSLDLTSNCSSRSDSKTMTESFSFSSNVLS
Method: Secondly, in order to determine whether calcium induces a significant conformational change within a physiological dynamic range, the U2O2 biosensor stable cell line was stably transfected with the human Tachykinin receptor 1.
The double stable cell line was seeded at 20,000 cells per well on 96-mm optical plates, and cultured in 200 ul of DMEM F12 supplemented with 10% fetal bovine serum. For fluorescent biosensor redistribution, cells were stimulated with different concentrations of the agonist Substancia P during 6 hours. After treatment, the nucleus was stained with DAPI and biosensor fluorescence redistribution was detected by fluorescence using image analysis algorithms. […] The activity was calculated as an increment of the granularity of these cells. Cells were treated with 11 log dilution series (n=5).

Compound: CCCCCCCCCCCCCC(=O)O[C@@H]1[C@@H](C)[C@@]2(O)[C@@H](C=C(CO)C[C@]3(O)C(=O)C(C)=C[C@@H]23)[C@@H]2C(C)(C)[C@]12OC(C)=O [PMA]
Cellular distribution of fluorescent DAG biosensor after treatment ([1]; 25 ng/ml, 4 hours, U2OS expressing DAG biosensor): internalized in vesicles in the citosol | Membrane distribution of calcium biosensor after raising intracellular calcium [2]: substantial decrease in membrane distribution

EC50 ([1]; Homo sapiens, U2OS, 4 h, read-out: Ec50, biosensor redistribution (increment of granularity)): 0.000289 ng/mL (≈ 0.00137 nM)
Compound: CC(C)NCC(O)c1ccc(O)c(O)c1 (centres unmarked) [Isoproterenol]

Compound: C[C@H](CCC(=O)O)C[C@H](C)C[C@H](C)C(=O)/C=C(\O)[C@H](C)C[C@H](C)C/C=C/[C@@H](C)[C@@H](O)[C@@H](C)[C@@H](O)C[C@@H]1CC[C@@](C)([C@H]2CC[C@@](C)([C@@H](C)O)O2)O1 [ionomycin]
Membrane distribution of calcium biosensor after raising intracellular calcium [2]: substantial decrease in membrane distribution

Compound: Substance P
Cellular distribution of fluorescent calcium biosensor after treatment [3]: internalized in vesicles in the citosol
